Measured values published in PubChem BioAssay (NCI).
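Protocol summary: plate cells (96-well), add compound at 5 concentrations, incubate 48 h, interpolate endpoints linearly. Abbreviation: GI50, concentration required for 50% inhibition of growth. TGI is the concentration that stops growth completely.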

What was measured:
Test in all cases: inhibition of tumour cell growth, NCI panel, 48 h
786-0 renal = system: 786-0 renal
ACHN renal = system: ACHN renal
K-562 leukemia = system: K-562 leukemia
MDA-MB-435 = system: MDA-MB-435
NCI-H226 lung = system: NCI-H226 lung
RXF 393 renal = system: RXF 393 renal
SK-MEL-28 melanoma = system: SK-MEL-28 melanoma
UACC-62 melanoma = system: UACC-62 melanoma
UO-31 renal = system: UO-31 renal
MCF7 breast = system: MCF7 breast

SMILES	GI50 (786-0 renal) [µM]	TGI (786-0 renal) [µM]	GI50 (ACHN renal) [µM]	TGI (ACHN renal) [µM]	GI50 (K-562 leukemia) [µM]	TGI (K-562 leukemia) [µM]	GI50 (MDA-MB-435) [µM]	TGI (MDA-MB-435) [µM]	GI50 (NCI-H226 lung) [µM]	TGI (NCI-H226 lung) [µM]	GI50 (RXF 393 renal) [µM]	TGI (RXF 393 renal) [µM]	GI50 (SK-MEL-28 melanoma) [µM]	TGI (SK-MEL-28 melanoma) [µM]	GI50 (UACC-62 melanoma) [µM]	TGI (UACC-62 melanoma) [µM]	GI50 (UO-31 renal) [µM]	TGI (UO-31 renal) [µM]	GI50 (MCF7 breast) [µM]	TGI (MCF7 breast) [µM]
Cc1cc(N2CCSCC2)nc(NC2CCCC(Nc3ccnc4cc(Cl)ccc34)C2)n1 (configuration not stated)	1.52	2.92	2.06	4.46	1.14	3.41	1.68	3.09	3.2	11	1.41	2.93	1.9	3.7	1.94	3.5	1.41	2.77	–	–
O=c1[nH]c2cc(Cl)ccc2nc1/C(=N\O)C(O)c1ccc([N+](=O)[O-])cc1 (configuration not stated)	–	> 100	–	> 100	–	> 100	–	–	–	–	–	> 100	–	–	–	> 100	–	> 100	–	–
COc1cc(CNC2c3cc4c(cc3C(c3cc(OC)c(OC)c(OC)c3)[C@H]3C(=O)OCC23)OCO4)cc(OC)c1OC (some centres not stated)	–	> 100	–	> 100	–	> 100	–	–	–	0.487	–	–	–	–	–	0.651	–	> 100	–	–
C[N+](C)(C)CC(=O)N/N=C(\C(=O)NC1=C(Cl)C(=O)c2ccccc2C1=O)C(C#N)c1csc(-c2ccc([N+](=O)[O-])cc2)n1 (configuration not stated)	–	> 100	–	> 100	–	> 100	–	–	–	> 100	–	> 100	–	> 100	–	> 100	–	> 100	–	–
CN(C)c1nc(=Nc2cccc(Cl)c2)ss1	–	25.6	–	37.2	–	41.8	–	–	–	> 100	–	31.7	–	25.8	–	23.4	–	69.8	–	–
CCN(CC)CCCNC(=O)c1c2c(n3ccccc13)C(=O)c1ncccc1C2=O	0.904	7.9	0.395	3.16	0.916	> 100	0.224	0.506	–	–	1.16	3.13	2.49	8.64	0.472	2.21	1.59	5.07	0.298	1.76
CCOC(=N)/C(=C1\OC(N)=C(c2ccc(Cl)cc2)C1=O)c1ccc(Cl)cc1	–	32.7	–	51	–	53.6	–	–	–	49.9	–	27.2	–	31.7	–	29	–	31.3	–	–
C=C1CCC2C(C)(COC(=O)CC)C(OC(=O)CC)CCC2(C)C1C/C=C1/C(=O)OCC1OC(=O)CC (configuration not stated)	1.9	3.48	1.74	3.24	1.79	10.4	1.68	3.7	2.13	4.1	1.66	3.05	1.95	4.1	2.23	5.2	1.88	3.38	–	–
O=S1Nc2c(Cl)cc(Cl)c3c(Cl)cc(Cl)c(c23)N1	–	41.9	–	73.8	–	> 100	–	–	–	69.5	–	50.9	–	> 100	–	66	–	> 100	–	–
CNC(=O)Cc1nc(-c2cccc(NS(=O)(=O)c3c(F)cccc3F)c2F)c(-c2ccnc(Nc3ccccc3)n2)s1	10.1	> 50	0.889	> 50	1.09	> 50	0.0445	> 44	8.73	> 50	0.181	2.84	0.0185	> 50	–	–	1.22	13.7	19.1	> 50
CC1=NN(C(=O)c2ccc([N+](=O)[O-])cc2)C(=O)C1N=Nc1ccccc1C(=O)O (configuration not stated)	–	> 100	–	> 100	–	> 100	–	–	–	> 100	–	> 100	–	> 100	–	> 100	–	> 100	–	–
COC1=CC(=O)C2C(C1=O)C(c1ccccc1)[C@H]2C (some centres not stated)	–	> 100	–	68.5	–	> 100	–	–	–	–	–	> 100	–	> 100	–	> 100	–	> 100	–	–
C/C=C/CC(C)[C@@H](O)[C@H](NC)C(=O)O (some centres not stated)	–	> 100	–	> 100	–	> 100	–	–	–	–	–	> 100	–	> 100	–	> 100	–	> 100	–	–
COC(=O)C1[C@H](c2cc(OC)c(OC)c(OC)c2)OC(=O)C1(C(=O)OC)C(=O)c1ccc2c(c1)OCO2 (some centres not stated)	–	> 100	–	> 100	–	> 100	–	–	–	> 100	–	> 100	–	> 100	–	> 100	–	> 100	–	–
CCCN(CCCC(NC(C)=O)C(=O)NCc1ccccc1)C(=O)NCCCl (configuration not stated)	–	> 100	–	> 100	–	> 100	–	–	–	> 100	–	> 100	–	> 100	–	> 100	–	> 100	–	–
CC(=O)OC1CC2C(C)(C)C(=O)C=C[C@]2(C)C2CCC3(C)C(=CC(=O)C3c3ccoc3)[C@]12C (some centres not stated)	–	31.1	–	40.1	–	> 100	–	–	–	35.6	–	10.1	–	32.6	–	31.6	–	33	–	–
CCN(CC)CCCC(C)N=C(C1=C(C(=NC(C)CCCN(CC)CC)c2cccc(OC)c2)C(=O)NC1=O)c1cccc(OC)c1 (configuration not stated)	1.8	7.86	–	–	1.34	4.2	0.871	1.68	2.83	13.6	1.11	4.15	–	–	7.71	15	1.39	4.27	1.25	3.51
Cc1cc(N(CCC#N)S(C)(=O)=O)ccc1C=Nc1ccc(C(=O)NN2C(=O)/C(=C/c3ccc(N(CCC#N)CCC#N)cc3C)N=C2c2cc([N+](=O)[O-])ccc2Cl)cc1	–	> 100	–	> 100	–	> 100	–	–	–	> 100	–	> 100	–	> 100	–	> 100	–	> 100	–	–
O=[N+]([O-])CCc1cccc([N+](=O)[O-])c1	–	> 100	–	> 100	–	> 100	–	–	–	> 100	–	> 100	–	> 100	–	> 100	–	> 100	–	–
COC(=O)C(Cc1nc2ccccc2[nH]c1=O)C(=O)C(=O)Nc1ccc([N+](=O)[O-])cc1[N+](=O)[O-] (configuration not stated)	–	32	–	33.3	–	> 100	–	–	–	32.1	–	36.8	–	40.1	–	38.9	–	43.6	–	–

SMILES	GI50 (786-0 renal) [µM]	TGI (786-0 renal) [µM]	GI50 (ACHN renal) [µM]	TGI (ACHN renal) [µM]	GI50 (K-562 leukemia) [µM]	TGI (K-562 leukemia) [µM]	GI50 (MDA-MB-435) [µM]	TGI (MDA-MB-435) [µM]	GI50 (NCI-H226 lung) [µM]	TGI (NCI-H226 lung) [µM]	GI50 (RXF 393 renal) [µM]	TGI (RXF 393 renal) [µM]	GI50 (SK-MEL-28 melanoma) [µM]	TGI (SK-MEL-28 melanoma) [µM]	GI50 (UACC-62 melanoma) [µM]	TGI (UACC-62 melanoma) [µM]	GI50 (UO-31 renal) [µM]	TGI (UO-31 renal) [µM]	GI50 (MCF7 breast) [µM]	TGI (MCF7 breast) [µM]
CCOC(=N)CC(=O)c1ccccc1	–	> 100	–	> 100	–	> 100	–	–	–	> 100	–	> 100	–	> 100	–	> 100	–	> 100	–	–
CCc1cc(CCC(=O)Nc2c(C)cccc2C)[nH]n1	–	> 100	–	> 100	–	> 100	–	–	–	> 100	–	> 100	–	> 100	–	> 100	–	> 100	–	–
CC/C(CC(=O)CCC(=O)Nc1ccccc1[N+](=O)[O-])=N/NC(=O)C[n+]1ccccc1	–	> 100	–	> 100	–	> 100	–	–	–	> 100	–	> 100	–	> 100	–	> 100	–	> 100	–	–
Cc1cc(Cl)ccc1NC(=O)C(=O)C(C(=O)c1ccc2ccccc2c1)C1OC(=O)c2ccccc21 (configuration not stated)	–	22.1	–	> 100	–	33.8	–	–	–	7.69	–	9.53	–	54.5	–	24	–	31.5	–	–
CCOC(=O)C(C)(C)Oc1ccc(/C=C/C(=O)c2ccc(Cl)cc2)cc1	–	30.9	–	–	–	82.2	–	–	–	70.5	–	30.5	–	34.7	–	44	–	> 100	–	–
COC(C(=O)NCCCCNC(=O)C(OC)c1ccccc1)c1ccccc1 (configuration not stated)	–	> 100	–	> 100	–	> 100	–	–	–	> 100	–	> 100	–	> 100	–	> 100	–	> 100	–	–
CN(C)C=C1C(Cl)=C(C=O)CC(C=O)=C1Cl	–	24.5	–	26.4	–	13.8	–	–	–	–	–	–	–	22.6	–	32.5	–	35.1	–	–
O=C(Nc1cccc(O)c1)C(=O)C(C(=O)c1ccc(Cl)c(Cl)c1)C1OC(=O)c2ccccc21 (configuration not stated)	–	26.4	–	29.7	–	48.9	–	–	–	21.9	–	37.2	–	40.6	–	31.8	–	27.1	–	–
COc1cc(CNc2ccccc2C(=O)N2CCN(C(=O)c3cc(-c4cc(OC)c(OC)c(OC)c4)n4nc(-c5ccccc5)cc4n3)CC2)cc(OC)c1OC	4.49	> 100	4.24	> 100	1.56	> 100	–	–	4.44	59.4	2.32	7.54	5.24	> 100	2.37	> 100	1.54	> 100	3.01	> 100
O=C1OC(O)C(Oc2c(Cl)cccc2Cl)=C1Cl (configuration not stated)	–	32.2	–	42.3	–	48	–	–	–	42.6	–	23.9	–	45.7	–	24.7	–	28.2	–	–
COC(=O)c1cc(O)c2c(c1C(=O)OC)C[C@H]1[C@@H]3CC=C4C[C@@H](O)CC[C@]4(C)[C@H]3CC[C@]21C	2.42	6.7	3.64	17	2.41	7.77	3.01	20.6	3.78	20	1.19	3.39	2.71	8.59	–	–	2.18	4.26	3.15	12.8
CC(C)(C)C1CCC2c3c([nH]c4ccccc34)C3C(=O)N(c4ccccc4)C(=O)C3C2C1 (configuration not stated)	–	26	–	26.2	–	15.8	–	–	–	21.6	–	14.4	–	18.8	–	56.7	–	8.48	–	–
CSc1n[n+]2c(s1)SCCC2	–	> 100	–	> 100	–	> 100	–	–	–	–	–	> 100	–	> 100	–	> 100	–	> 100	–	–
O=[N+]([O-])C1Cc2ccccc2OC1c1ccccc1 (configuration not stated)	–	> 100	–	> 100	–	> 100	–	–	–	> 100	–	45.8	–	> 100	–	> 100	–	> 100	–	–
CC(=O)[CH-]C(=O)c1ccccc1.CC(=O)[CH-]C(=O)c1ccccc1.CCOCC[O-].CCOCC[O-].[Ti+4]	21.2	74.2	31.6	> 100	23	55.8	–	–	5.55	22.6	–	–	10.8	27.6	15.5	37.8	17.6	49.5	–	–
COc1ccc(/C=N\Nc2ccc([N+](=O)[O-])cn2)cc1OC	3.46	> 100	–	–	> 100	> 100	> 100	> 100	8.39	> 100	3.65	16.7	> 100	> 100	> 100	> 100	3.14	> 100	–	–
CC(=O)On1c(-c2ccccc2-c2nc3ccccc3n2OC(C)=O)nc2ccccc21	–	> 100	–	> 100	–	> 100	–	> 100	–	> 100	–	–	–	> 100	–	> 100	–	> 100	–	> 100
O=c1c2cccc3cccc(c4n1CCN=4)c32	–	> 100	–	> 100	–	> 100	–	–	–	> 100	–	> 100	–	> 100	–	> 100	–	> 100	–	–
C=C[C@@]1(O)CCCC2=C(C(=O)OCC)CC[C@]21C	–	> 100	–	> 100	–	> 100	–	–	–	> 100	–	> 100	–	> 100	–	–	–	> 100	–	–
FC(F)(F)C1(Br)C(c2ccccc2)=C1c1ccccc1	–	31	–	40.3	–	28.2	–	–	–	46.3	–	31.7	–	33.8	–	30.8	–	33.9	–	–
